Data taken from patent US20080177220A1, “Ultrasound-Mediated Transcleral Drug Delivery” (THE CURATORS OF THE UNIVERSITY OF MISSOURI, priority 2006, published 2008).

Key:
[1] = Diffusion of Sodium Fluorescein formulation across Cellu-Por synthetic membrane simulating ocular tissue, with or without ultrasound; format: in vitro ADME; settings: ultrasound applied concurrently during application of the formulation, FIG. 3
Description: The control results 302 display the effect of allowing the formulation to diffuse naturally, while the ultrasound results 304 display the effect of applying ultrasound concurrently during application of the formulation.

[2] = Diffusion of Sodium Fluorescein formulation through RCS tissue in a Franz diffusion cell at different ultrasound standoff distances; format: in vitro ADME, New Zealand albino rabbits; settings: treat far, 1.00±0.01 cm standoff distance, versus 0.50±0.01 cm (treat near) / control without ultrasound, rabbit RCS tissue, FIG. 4
Description: By using a standoff distance 136, drug transport can be optimized. A standoff distance is desired to optimize the cavitation effects in the Fraunhofer zone of the ultrasonic energy field. […] The control results 402 represent normal diffusion action of the formulation in the absence of ultrasound. The treat near results 404 represent diffusion of the formulation achieved using a 0.50±0.01 cm standoff distance. The treat far results 406 represent diffusion of the formulation achieved using a 1.00±0.01 cm standoff distance. […] The optimum standoff distance can vary depending on a number of factors, such as, for example, the coupling media, the transducer configuration, the targeted tissue, and the pharmaceutical formulation being administered. The optimum standoff distance for transcleral drug delivery differs from drug delivery attempted through the cornea due to the numerous factors discussed above, including inherent tissue differences and transport phenomena occurring in the blood-retina barrier.

SMILES: O=C([O-])c1ccccc1-c1c2ccc(=O)cc-2oc2cc([O-])ccc12.[Na+].[Na+] [Sodium Fluorescein]
- permeability with ultrasonic waves versus control (natural diffusion) [1]: substantially higher
- permeability increase using the greater standoff distance [2]: approximately 30 times higher
